The record followed here is patent US10047083B2, “Dihydropyrimidinoisoquinolinones and pharmaceutical compositions thereof for the treatment of inflammatory disorders” (GALAPAGOS NV, priority 2011, dated 2018).

SMILES strings stand for the structures. Bounds are passed on as bounds.

This test deals with T1, GPR84 (Homo sapiens, UniProt Q9NQS5).
T1 construct: expressed in transfected cells; membranes used
T1 sequence (Q9NQS5 whole entry): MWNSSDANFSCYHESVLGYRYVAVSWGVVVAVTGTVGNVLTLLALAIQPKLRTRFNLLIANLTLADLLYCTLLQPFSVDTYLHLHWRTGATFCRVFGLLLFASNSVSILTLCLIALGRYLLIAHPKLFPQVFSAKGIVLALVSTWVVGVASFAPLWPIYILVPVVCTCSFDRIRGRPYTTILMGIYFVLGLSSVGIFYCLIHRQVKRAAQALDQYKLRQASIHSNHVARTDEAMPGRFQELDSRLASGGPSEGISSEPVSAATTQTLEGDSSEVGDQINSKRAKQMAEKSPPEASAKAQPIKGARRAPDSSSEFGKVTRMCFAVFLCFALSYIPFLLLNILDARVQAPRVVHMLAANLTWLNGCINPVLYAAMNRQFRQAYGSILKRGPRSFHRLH
Kind of test: GTPγS binding assay (GPR84). Type of test: biochemical. The note with it: membranes from stable cell line over expressing GPR84; 3,3′ di indolylmethane at EC80. The protocol: 1.1. Cell Based Assay: GTp-γS Binding Assay.
The following assay can be used for determination of GPR84 activation.
The assay is performed in a 96 well plate where the following reagents are added. […] In a last step, 30 μL of a mixture consisting of membranes-GTPγS-SpA beads is added [mixture consists of 20 μg/well membranes derived from stable cell line over expressing GPR84 (membranes are pre-incubated with 0.1 μM GDP for 15 min at 4° C.), 0.1 nM [^35S]GTPγS (Perkin Elmer, NEG030) and 0.5 mg/well PVT-WGA SpA beads (Perkin Elmer, RPNQ0001)]. All components are diluted in assay buffer containing 20 mM HEPES pH 7.4; 5 mM MgCl2; 250 mM NaCl; 0.05% BSA; 75 ug/mL saponin. Reactions are incubated for 90 min at room temperature followed by centrifugation at 2000 rpm during 15 min. Plates are read on a Topcount reader (Perkin Elmer) immediately after centrifugation (readout time, 1 min/well).
What is called IC50 is the concentration that gives 50% inhibition. The low end stands for inhibition by little substance, the high end for a need for much substance. Compound `CCCn1cc(-c2ccc3c(c2)CCn2c-3cc(OCC3COCCO3)nc2=O)cn1` (centres unmarked) [Compound 101, 2-([1,4]dioxan-2-ylmethoxy)-9-(1-propyl-1H-pyrazol-4-yl)-6,7-dihydro-pyrimido[6,1-a]isoquinolin-4-one] registered a half-inhibitory concentration (IC50) of 101 to 500 nM.

Compound `O=c1nc(OCC2COCCO2)cc2n1CCc1cc(C#CCn3ccnc3)ccc1-2` (centres unmarked) [Compound 113, 2-([1,4]Dioxan-2-ylmethoxy)-9-(3-imidazol-1-yl-prop-1-ynyl)-6,7-dihydro-pyrimido[6,1-a]isoquinolin-4-one] returned an IC50 of 101 to 500 nM.

`COc1ccc(OC)c(-c2ccc3c(c2)CCn2c-3cc(OCC3COCCO3)nc2=O)c1` (centres unmarked) [Compound 67, 9-(2,5-dimethoxy-phenyl)-2-([1,4]dioxan-2-ylmethoxy)-6,7-dihydro-pyrimido[6,1-a]isoquinolin-4-one] gave an IC50 of 0.01 to 100 nM.

The compound `O=c1nc(OC[C@@H]2COCCO2)cc2n1CCc1cc(OCC3CC3)ccc1-2` [Compound 131, 9-cyclopropylmethoxy-2-((S)-1-[1,4]dioxan-2-ylmethoxy)-6,7-dihydro-pyrimido[6,1-a]isoquinolin-4-one] registered a 50% inhibitory concentration (IC50) of 0.01 to 100 nM.

`O=c1nc(OCC2COCCO2)cc2n1CCc1cc(C3=CCOCC3)ccc1-2` (centres unmarked) [Compound 58, 9-(3,6-dihydro-2H-pyran-4-yl)-2-([1,4]dioxan-2-ylmethoxy)-6,7-dihydro-pyrimido[6,1-a]isoquinolin-4-one] yielded an IC50 of 101 to 500 nM.

`CC(C)(C)COCc1ccc2c(c1)CCn1c-2cc(OC[C@@H]2COCCO2)nc1=O` [Compound 136, 9-(2,2-dimethyl-propoxymethyl)-2-((S)-1-[1,4]dioxan-2-ylmethoxy)-6,7-dihydro-pyrimido[6,1-a]isoquinolin-4-one]: the IC50 lay within 0.01 to 100 nM.

Turning to `CCCCC#Cc1ccc2c(c1)CCn1c-2cc(OCC2COCCO2)nc1=O` (centres unmarked) [Compound 84, 2-([1,4]dioxan-2-ylmethoxy)-9-hex-1-ynyl-6,7-dihydro-pyrimido[6,1-a]isoquinolin-4-one], the half-maximal inhibitory concentration (IC50) lay within 0.01 to 100 nM.

For the compound `CCC(O)(C#Cc1ccc2c(c1)CCn1c-2cc(OCC2COCCO2)nc1=O)CC` (centres unmarked) [Compound 91, 2-([1,4]dioxan-2-ylmethoxy)-9-(3-ethyl-3-hydroxy-pent-1-ynyl)-6,7-dihydro-pyrimido[6,1-a]isoquinolin-4-one], the concentration for half-maximal inhibition (IC50) lay in the range of 101 to 500 nM.

`O=c1nc(OC[C@@H]2COCCO2)cc2n1CCc1cc(COC3COC3)ccc1-2` [Compound 124, 2-((S)-1-[1,4]dioxan-2-ylmethoxy)-9-(oxetan-3-yloxymethyl)-6,7-dihydro-pyrimido[6,1-a]isoquinolin-4-one] showed a half-maximal inhibitory concentration (IC50) of 101 to 500 nM.

`CCc1nc(COc2ccc3c(c2)CCn2c-3cc(OCC3COCCO3)nc2=O)no1` (centres unmarked) [Compound 78, 2-([1,4]dioxan-2-ylmethoxy)-9-(5-ethyl-[1,2,4]oxadiazol-3-ylmethoxy)-6,7-dihydro-pyrimido[6,1-a]isoquinolin-4-one] showed a concentration for half-maximal inhibition (IC50) of 0.01 to 100 nM.

As for `C=CCOc1ccc2c(c1)CCn1c-2cc(OC[C@H]2COCCO2)nc1=O` [Compound 117, 9-allyloxy-2-((R)-1-[1,4]dioxan-2-ylmethoxy)-6,7-dihydro-pyrimido[6,1-a]isoquinolin-4-one], the 50% inhibitory concentration (IC50) is 101 to 500 nM.

`CC(C)(O)C#Cc1ccc2c(c1)CCn1c-2cc(OCC2COCCO2)nc1=O` (centres unmarked) [Compound 55, 2-([1,4]dioxan-2-ylmethoxy)-9-(3-hydroxy-3-methyl-but-1-ynyl)-6,7-dihydro-pyrimido[6,6,1-a]isoquinolin-4-one] came in with an IC50 of more than 1000 nM.

Take `O=c1nc(OC[C@@H]2COCCO2)cc2n1CCc1cc(CCCCO)ccc1-2` [Compound 151, 2-((S)-1-[1,4]dioxan-2-ylmethoxy)-9-(4-hydroxy-butyl)-6,7-dihydro-pyrimido[6,1-a]isoquinolin-4-one]: the IC50 was 101 to 500 nM.

In the case of `COc1ccc(-c2ccc3c(c2)CCn2c-3cc(OCC3COCCO3)nc2=O)c(OC)n1` (centres unmarked) [Compound 70, 9-(2,6-dimethoxy-pyridin-3-yl)-2-([1,4]dioxan-2-ylmethoxy)-6,7-dihydro-pyrimido[6,1-a]isoquinolin-4-one], the concentration for half-maximal inhibition (IC50) was in the range of 0.01 to 100 nM.

`O=c1nc(OCC2COCCO2)cc2n1CCc1cc(C#CC3CCCC3)ccc1-2` (centres unmarked) [Compound 81, 9-cyclopentylethynyl-2-([1,4]dioxan-2-ylmethoxy)-6,7-dihydro-pyrimido[6,1-a]isoquinolin-4-one] returned a concentration for half-maximal inhibition (IC50) of 0.01 to 100 nM.

Consider `O=c1nc(OC[C@@H]2COCCO2)cc2n1CCc1cc(NC3CCCCC3)ccc1-2` [Compound 145, 9-cyclohexylamino-2-((S)-1-[1,4]dioxan-2-ylmethoxy)-6,7-dihydro-pyrimido[6,1-a]isoquinolin-4-one], for which the IC50 fell in the range of 101 to 500 nM.

`CN(c1ccc2c(c1)CCn1c-2cc(OC[C@@H]2COCCO2)nc1=O)C1CCCCC1` [Compound 152, 9-(cyclohexyl-methyl-amino)-2-((S)-1-[1,4]dioxan-2-ylmethoxy)-6,7-dihydro-pyrimido[6,1-a]isoquinolin-4-one] yielded a concentration for half-maximal inhibition (IC50) of 501 to 1000 nM.

On to `O=c1nc(OC[C@@H]2COCCO2)cc2n1CCc1cc(COC3CCCCC3)ccc1-2` [Compound 137, 9-cyclohexyloxymethyl-2-((S)-1-[1,4]dioxan-2-ylmethoxy)-6,7-dihydro-pyrimido[6,1-a]isoquinolin-4-one], for which the IC50 was 0.01 to 100 nM.

The compound `CCC(O)(CC)CCc1ccc2c(c1)CCn1c-2cc(OC[C@@H]2COCCO2)nc1=O` [Compound 155, 2-((S)-1-[1,4]dioxan-2-ylmethoxy)-9-(3-ethyl-3-hydroxy-pentyl)-6,7-dihydro-pyrimido[6,1-a]isoquinolin-4-one] showed an IC50 of 0.01 to 100 nM.

The compound `C=CCOc1ccc2c(c1)CCn1c-2cc(OC[C@@H]2COCCO2)nc1=O` [Compound 118, 9-allyloxy-2-((S)-1-[1,4]dioxan-2-ylmethoxy)-6,7-dihydro-pyrimido[6,1-a]isoquinolin-4-one] returned a 50% inhibitory concentration (IC50) of 101 to 500 nM.

For the compound `NC(=O)c1ccc(F)c(-c2ccc3c(c2)CCn2c-3cc(OCC3COCCO3)nc2=O)c1` (centres unmarked) [Compound 50, 3-[2-([1,4]dioxan-2-ylmethoxy)-4-oxo-6,7-dihydro-4H-pyrimido[6,1-a]isoquinolin-9-yl]-4-fluoro-benzamide], the 50% inhibitory concentration (IC50) is 101 to 500 nM.

`N#Cc1cccc(-c2ccc3c(c2)CCn2c-3cc(OCC3COCCO3)nc2=O)c1` (centres unmarked) [Compound 5, 3-[2-([1,4]dioxan-2-ylmethoxy)-4-oxo-6,7-dihydro-4H-pyrimido[6,1-a]isoquinolin-9-yl]-benzonitrile] gave an IC50 of 501 to 1000 nM.

Take `C#Cc1ccc2c(c1)CCn1c-2cc(OCC2COCCO2)nc1=O` (centres unmarked) [Compound 105, 2-([1,4]dioxan-2-ylmethoxy)-9-ethynyl-6,7-dihydro-pyrimido[6,1-a]isoquinolin-4-one]: the IC50 was in the range of 101 to 500 nM.

The compound `O=c1nc(OC[C@H]2COCCO2)cc2n1CCc1cc(COC3CCOCC3)ccc1-2` [Compound 119, 2-((R)-1-[1,4]dioxan-2-ylmethoxy)-9-(tetrahydro-pyran-4-yloxymethyl)-6,7-dihydro-pyrimido[6,1-a]isoquinolin-4-one] registered a 50% inhibitory concentration (IC50) of 101 to 500 nM.

With `N#Cc1ccncc1-c1ccc2c(c1)CCn1c-2cc(OCC2COCCO2)nc1=O` (centres unmarked) [Compound 66, 3-[2-([1,4]dioxan-2-ylmethoxy)-4-oxo-6,7-dihydro-4H-pyrimido[6,1-a]isoquinolin-9-yl]-isonicotinonitrile], the IC50 lay in the range of 101 to 500 nM.

`O=c1nc(OC[C@@H]2COCCO2)cc2n1CCc1cc(CCC3(O)CCCC3)ccc1-2` [Compound 166, 2-((S)-1-[1,4]dioxan-2-ylmethoxy)-9-[2-(1-hydroxy-cyclopentyl)-ethyl]-6,7-dihydro-pyrimido[6,1-a]isoquinolin-4-one]: the IC50 lay in the range of 0.01 to 100 nM.

`CC(C)CCn1cc(-c2ccc3c(c2)CCn2c-3cc(OCC3COCCO3)nc2=O)cn1` (centres unmarked) [Compound 96, 2-([1,4]dioxan-2-ylmethoxy)-9-[1-(3-methyl-butyl)-1H-pyrazol-4-yl]-6,7-dihydro-pyrimido[6,1-a]isoquinolin-4-one]: the IC50 lay within 101 to 500 nM.

Take `O=c1nc(OCC2COCCO2)cc2n1CCc1cc(C#Cc3ncccn3)ccc1-2` (centres unmarked) [Compound 106, 2-([1,4]dioxan-2-ylmethoxy)-9-pyrimidin-2-ylethynyl-6,7-dihydro-pyrimido[6,1-a]isoquinolin-4-one]: the IC50 is 501 to 1000 nM.

As to `COCCOc1ccc2c(c1)CCn1c-2cc(OC[C@@H]2COCCO2)nc1=O` [Compound 129, 2-((S)-1-[1,4]dioxan-2-ylmethoxy)-9-(2-methoxy-ethoxy)-6,7-dihydro-pyrimido[6,1-a]isoquinolin-4-one], the IC50 was 101 to 500 nM.

`N#Cc1ccc(-c2ccc3c(c2)CCn2c-3cc(OCC3COCCO3)nc2=O)cn1` (centres unmarked) [Compound 59, 5-[2-([1,4]dioxan-2-ylmethoxy)-4-oxo-6,7-dihydro-4H-pyrimido[6,1-a]isoquinolin-9-yl]-pyridine-2-carbonitrile] yielded an IC50 of 501 to 1000 nM.

As for `CCOc1ccc(-c2ccc3c(c2)CCn2c-3cc(OCC3COCCO3)nc2=O)cn1` (centres unmarked) [Compound 61, 2-([1,4]dioxan-2-ylmethoxy)-9-(6-ethoxy-pyridin-3-yl)-6,7-dihydro-pyrimido[6,1-a]isoquinolin-4-one], the half-maximal inhibitory concentration (IC50) lay within 0.01 to 100 nM.

`CC(C)(O)CCc1ccc2c(c1)CCn1c-2cc(OC[C@@H]2COCCO2)nc1=O` [Compound 156, 2-((S)-1-[1,4]dioxan-2-ylmethoxy)-9-(3-hydroxy-3-methyl-butyl)-6,7-dihydro-pyrimido[6,1-a]isoquinolin-4-one] displayed a concentration for half-maximal inhibition (IC50) of 101 to 500 nM.
